From ChEMBL document CHEMBL4311959, “Discovery of a potent p38α/MAPK14 kinase inhibitor: Synthesis, in vitro/in vivo biological evaluation, and docking studies” (Eur J Med Chem, 2019)

Columns and labels:
[1] = Stability in rat plasma assessed as remaining compound at 10 uM incubated for 30 mins by LC-MS analysis; format: ADME, cell-free; conditions: read-out: Stability
Rattus norvegicus = assay: Antiinflammatory activity in Sprague-Dawley rat assessed as inhibition of carrageenan-induced paw edema at 50 mg/kg, ip administered 1 hr before carrageenan stimulation and measured after 3 hrs relative to control; format: functional
[2] = biological target: Tyrosine-protein kinase JAK1 (Homo sapiens) (UniProt P23458); assay: Inhibition of human JAK1 at 10 uM using poly[Glu:Tyr] (4:1) as substrate by [gamma-33P]-ATP assay relative to control
[3] = biological target: ALK tyrosine kinase receptor (Homo sapiens) (UniProt Q9UM73); assay: Inhibition of human ALK at 10 uM using poly[Glu:Tyr] (4:1) as substrate by [gamma-33P]-ATP assay relative to control
[4] = biological target: Epidermal growth factor receptor (Homo sapiens) (UniProt P00533); assay: Inhibition of human EGFR at 10 uM using poly[Glu:Tyr] (4:1) as substrate by [gamma-33P]-ATP assay relative to control
Epidermal growth factor receptor (Homo sapiens), sequence (P00533 whole entry): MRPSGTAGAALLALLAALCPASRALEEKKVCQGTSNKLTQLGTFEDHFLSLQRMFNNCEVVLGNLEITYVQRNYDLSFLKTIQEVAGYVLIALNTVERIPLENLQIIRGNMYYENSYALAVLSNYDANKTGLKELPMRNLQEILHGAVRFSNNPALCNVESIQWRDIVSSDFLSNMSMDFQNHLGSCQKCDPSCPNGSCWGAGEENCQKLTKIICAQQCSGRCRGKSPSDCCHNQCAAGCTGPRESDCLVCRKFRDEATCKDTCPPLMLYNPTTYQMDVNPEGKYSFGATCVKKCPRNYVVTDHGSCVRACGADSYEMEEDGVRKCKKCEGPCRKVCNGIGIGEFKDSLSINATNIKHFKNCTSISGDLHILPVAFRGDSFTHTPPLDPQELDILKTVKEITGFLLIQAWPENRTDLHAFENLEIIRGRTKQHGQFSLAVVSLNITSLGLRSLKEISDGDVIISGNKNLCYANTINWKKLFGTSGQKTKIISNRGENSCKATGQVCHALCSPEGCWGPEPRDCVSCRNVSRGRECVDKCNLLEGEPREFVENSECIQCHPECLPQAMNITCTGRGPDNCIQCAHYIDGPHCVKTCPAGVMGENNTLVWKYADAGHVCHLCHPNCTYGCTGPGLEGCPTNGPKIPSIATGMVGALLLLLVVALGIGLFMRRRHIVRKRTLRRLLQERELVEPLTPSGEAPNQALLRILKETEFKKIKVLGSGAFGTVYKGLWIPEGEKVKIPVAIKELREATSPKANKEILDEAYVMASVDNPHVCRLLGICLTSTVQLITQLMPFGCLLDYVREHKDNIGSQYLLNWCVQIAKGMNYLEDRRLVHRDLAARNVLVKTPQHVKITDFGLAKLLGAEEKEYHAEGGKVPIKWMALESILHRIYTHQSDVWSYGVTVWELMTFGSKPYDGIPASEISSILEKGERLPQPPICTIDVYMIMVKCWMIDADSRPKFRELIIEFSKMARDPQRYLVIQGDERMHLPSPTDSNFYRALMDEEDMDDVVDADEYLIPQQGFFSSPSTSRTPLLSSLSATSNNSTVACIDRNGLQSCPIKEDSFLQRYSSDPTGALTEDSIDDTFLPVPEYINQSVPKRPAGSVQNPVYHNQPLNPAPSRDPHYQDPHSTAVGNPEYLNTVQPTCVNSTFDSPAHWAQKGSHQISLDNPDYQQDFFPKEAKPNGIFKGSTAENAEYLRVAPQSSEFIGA

[5] = biological target: Mitogen-activated protein kinase 11 (Homo sapiens) (UniProt Q15759); assay: Inhibition of human p38beta at 10 uM using MBP as substrate by [gamma-33P]-ATP assay relative to control
[6] = AUCinfinity in Sprague-Dawley rat at 10 mg/kg, iv measured for each 30 mins by LC-MS/MS analysis; format: ADME, organism-based; set-up: dose 10 mg/kg, time infinity, route intravenous; conditions: in vivo
[7] = biological target: Voltage-gated inwardly rectifying potassium channel KCNH2 (Homo sapiens, UniProt Q12809); assay: Inhibition of human ERG incubated for 4 hrs by competitive fluorescence tracer binding based assay
[8] = Cmax in Sprague-Dawley rat at 10 mg/kg, po measured for each 30 mins by LC-MS/MS analysis; format: ADME, organism-based; set-up: dose 10 mg/kg, route oral; conditions: in vivo
[9] = biological target: Hepatocyte growth factor receptor (Homo sapiens, UniProt P08581); assay: Inhibition of human c-MET using KKKSPGEYVNIEFG as substrate by [gamma-33P]-ATP assay
[10] = biological target: Serine/threonine-protein kinase B-raf (Homo sapiens) (UniProt P15056); assay: Inhibition of human BRAF at 10 uM using MEK1 (K97R) as substrate by [gamma-33P]-ATP assay relative to control
Serine/threonine-protein kinase B-raf (Homo sapiens), sequence (P15056 whole entry): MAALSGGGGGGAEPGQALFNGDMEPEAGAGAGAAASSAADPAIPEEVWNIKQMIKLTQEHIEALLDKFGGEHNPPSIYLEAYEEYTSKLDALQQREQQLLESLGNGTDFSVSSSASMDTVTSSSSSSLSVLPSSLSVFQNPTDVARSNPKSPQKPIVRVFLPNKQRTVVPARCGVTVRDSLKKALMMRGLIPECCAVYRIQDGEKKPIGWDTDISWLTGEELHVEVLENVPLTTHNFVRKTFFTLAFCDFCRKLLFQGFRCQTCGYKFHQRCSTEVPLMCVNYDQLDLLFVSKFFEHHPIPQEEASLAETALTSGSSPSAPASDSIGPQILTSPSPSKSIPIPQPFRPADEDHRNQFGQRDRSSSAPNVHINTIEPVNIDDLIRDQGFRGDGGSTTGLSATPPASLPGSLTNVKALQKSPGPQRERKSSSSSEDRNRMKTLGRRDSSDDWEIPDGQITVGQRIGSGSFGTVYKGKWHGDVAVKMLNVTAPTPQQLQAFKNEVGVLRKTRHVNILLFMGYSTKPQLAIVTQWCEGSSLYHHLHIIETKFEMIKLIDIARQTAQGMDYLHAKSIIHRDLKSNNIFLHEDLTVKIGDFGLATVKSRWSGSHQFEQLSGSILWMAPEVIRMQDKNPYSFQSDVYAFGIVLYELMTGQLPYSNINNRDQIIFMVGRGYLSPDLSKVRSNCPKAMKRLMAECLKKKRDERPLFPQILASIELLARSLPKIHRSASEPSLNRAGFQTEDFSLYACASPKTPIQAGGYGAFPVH

Homo sapiens = organism: Homo sapiens; assay: Selectivity index, ratio of IC50 for human BRAF V600E mutant to IC50 for human p38alpha
[11] = Stability in human plasma assessed as remaining compound at 10 uM incubated for 30 mins by LC-MS analysis; format: ADME, cell-free; conditions: read-out: Stability
[12] = Stability in human plasma assessed as remaining compound at 10 uM incubated for 120 mins by LC-MS analysis; format: ADME, cell-free; conditions: read-out: Stability
[13] = biological target: Tyrosine-protein kinase Fyn (Homo sapiens) (UniProt P06241); assay: Inhibition of human FYN at 10 uM using poly[Glu:Tyr] (4:1) as substrate by [gamma-33P]-ATP assay relative to control
[14] = tested on: Mitogen-activated protein kinase 14 (Homo sapiens), Q16539 [T106M]; assay: Inhibition of human p38alpha T106M mutant at 10 uM using MBP as substrate by [gamma-33P]-ATP assay relative to control
Mitogen-activated protein kinase 14 (Homo sapiens), Q16539 [T106M], sequence (Q16539 whole entry T106M): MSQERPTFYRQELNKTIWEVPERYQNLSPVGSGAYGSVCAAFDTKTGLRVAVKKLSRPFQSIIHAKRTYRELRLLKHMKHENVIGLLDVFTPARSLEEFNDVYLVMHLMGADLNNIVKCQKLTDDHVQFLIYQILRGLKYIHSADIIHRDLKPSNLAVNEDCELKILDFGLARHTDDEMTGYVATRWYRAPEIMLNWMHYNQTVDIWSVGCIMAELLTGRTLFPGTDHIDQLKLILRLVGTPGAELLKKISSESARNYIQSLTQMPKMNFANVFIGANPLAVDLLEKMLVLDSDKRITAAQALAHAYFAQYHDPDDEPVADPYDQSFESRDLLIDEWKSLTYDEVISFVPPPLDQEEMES

[15] = biological target: Mitogen-activated protein kinase 14 (Homo sapiens, UniProt Q16539); assay: Inhibition of human p38alpha at 10 uM using MBP as substrate by [gamma-33P]-ATP assay relative to control
Mitogen-activated protein kinase 14, sequence (Q16539 whole entry): as the sequence (Q16539 whole entry T106M) above, with M106T counted along it

[16] = biological target: Glycogen synthase kinase-3 beta (Homo sapiens) (UniProt P49841); assay: Inhibition of human GSK3B at 10 uM using YRRAAVPPSPSLSRHSSPHQ(pS)EDEEE as substrate by [gamma-33P]-ATP assay relative to control
[17] = Half life in Sprague-Dawley rat at 10 mg/kg, iv measured for each 30 mins by LC-MS/MS analysis; format: ADME, organism-based; conditions: in vivo
[18] = biological target: Proto-oncogene tyrosine-protein kinase ROS (Homo sapiens) (UniProt P08922); assay: Inhibition of human ROS at 10 uM using KKKSPGEYVNIEFG as substrate by [gamma-33P]-ATP assay relative to control
Proto-oncogene tyrosine-protein kinase ROS (Homo sapiens), sequence (P08922 whole entry): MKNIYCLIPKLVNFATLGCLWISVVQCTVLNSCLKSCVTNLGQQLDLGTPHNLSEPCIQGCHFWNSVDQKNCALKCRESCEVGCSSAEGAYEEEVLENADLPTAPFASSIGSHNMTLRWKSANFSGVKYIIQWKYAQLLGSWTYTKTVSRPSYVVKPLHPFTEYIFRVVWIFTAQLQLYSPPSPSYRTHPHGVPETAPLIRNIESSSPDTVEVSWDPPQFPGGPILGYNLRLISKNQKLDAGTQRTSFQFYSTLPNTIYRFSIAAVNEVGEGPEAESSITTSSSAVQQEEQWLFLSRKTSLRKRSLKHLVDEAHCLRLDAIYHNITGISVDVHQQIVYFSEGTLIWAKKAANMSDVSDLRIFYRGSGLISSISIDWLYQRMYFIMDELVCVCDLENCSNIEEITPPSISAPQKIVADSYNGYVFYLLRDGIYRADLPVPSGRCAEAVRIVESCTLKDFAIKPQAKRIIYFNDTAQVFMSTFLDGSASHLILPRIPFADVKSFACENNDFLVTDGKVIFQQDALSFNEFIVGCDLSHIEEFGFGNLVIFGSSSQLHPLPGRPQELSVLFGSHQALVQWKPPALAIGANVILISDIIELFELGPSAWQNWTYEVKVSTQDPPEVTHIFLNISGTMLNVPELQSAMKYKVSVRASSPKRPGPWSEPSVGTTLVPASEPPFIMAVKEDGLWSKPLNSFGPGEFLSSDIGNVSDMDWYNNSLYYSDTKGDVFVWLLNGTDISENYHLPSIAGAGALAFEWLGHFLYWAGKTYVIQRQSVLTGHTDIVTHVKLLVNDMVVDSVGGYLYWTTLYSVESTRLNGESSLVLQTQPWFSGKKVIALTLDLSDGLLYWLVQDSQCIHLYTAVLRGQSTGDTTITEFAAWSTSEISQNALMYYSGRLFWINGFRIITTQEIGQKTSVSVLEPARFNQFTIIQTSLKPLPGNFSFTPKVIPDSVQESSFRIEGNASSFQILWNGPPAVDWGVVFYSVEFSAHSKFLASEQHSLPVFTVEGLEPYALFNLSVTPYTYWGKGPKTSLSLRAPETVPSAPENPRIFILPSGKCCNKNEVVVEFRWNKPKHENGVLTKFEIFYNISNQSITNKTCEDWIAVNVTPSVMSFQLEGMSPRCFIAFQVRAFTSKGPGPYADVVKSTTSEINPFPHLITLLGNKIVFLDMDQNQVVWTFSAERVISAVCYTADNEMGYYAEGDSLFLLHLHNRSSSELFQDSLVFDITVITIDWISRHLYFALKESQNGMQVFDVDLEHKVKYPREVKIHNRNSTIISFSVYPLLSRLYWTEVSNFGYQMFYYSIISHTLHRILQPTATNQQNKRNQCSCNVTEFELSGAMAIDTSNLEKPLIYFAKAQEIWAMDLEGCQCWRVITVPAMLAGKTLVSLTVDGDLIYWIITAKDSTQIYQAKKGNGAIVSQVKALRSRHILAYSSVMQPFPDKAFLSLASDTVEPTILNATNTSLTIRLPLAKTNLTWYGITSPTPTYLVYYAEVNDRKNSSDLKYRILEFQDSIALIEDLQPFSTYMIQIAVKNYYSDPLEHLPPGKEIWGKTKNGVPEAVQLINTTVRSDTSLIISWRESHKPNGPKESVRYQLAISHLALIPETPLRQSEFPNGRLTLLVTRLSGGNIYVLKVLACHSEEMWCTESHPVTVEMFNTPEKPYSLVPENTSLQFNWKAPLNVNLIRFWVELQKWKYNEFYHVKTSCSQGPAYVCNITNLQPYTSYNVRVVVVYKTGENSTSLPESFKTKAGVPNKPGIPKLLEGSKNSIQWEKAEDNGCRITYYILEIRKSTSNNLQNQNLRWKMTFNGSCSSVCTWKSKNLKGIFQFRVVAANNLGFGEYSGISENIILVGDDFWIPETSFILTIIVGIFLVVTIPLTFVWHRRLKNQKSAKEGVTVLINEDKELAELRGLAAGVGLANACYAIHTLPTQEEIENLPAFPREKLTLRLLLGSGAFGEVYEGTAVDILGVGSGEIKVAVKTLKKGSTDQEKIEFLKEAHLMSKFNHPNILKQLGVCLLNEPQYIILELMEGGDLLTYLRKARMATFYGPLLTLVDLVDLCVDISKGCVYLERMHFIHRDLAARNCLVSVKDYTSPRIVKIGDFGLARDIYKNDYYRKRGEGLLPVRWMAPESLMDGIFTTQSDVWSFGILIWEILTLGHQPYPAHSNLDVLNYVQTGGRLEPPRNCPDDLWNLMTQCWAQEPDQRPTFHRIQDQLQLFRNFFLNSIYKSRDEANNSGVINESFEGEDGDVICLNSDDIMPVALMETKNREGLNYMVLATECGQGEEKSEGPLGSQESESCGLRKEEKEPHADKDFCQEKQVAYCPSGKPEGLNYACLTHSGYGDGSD

[19] = biological target: Cyclin-dependent kinase 2/cyclin E1 (Homo sapiens) (UniProt P24864+P24941); assay: Inhibition of human CDK2/cyclin-E at 10 uM using histone H1 as substrate by [gamma-33P]-ATP assay relative to control; format: protein-complex assay
[20] = biological target: Proto-oncogene tyrosine-protein kinase Src (Homo sapiens) (UniProt P12931); assay: Inhibition of human c-SRC at 10 uM using poly[Glu:Tyr] (4:1) as substrate by [gamma-33P]-ATP assay relative to control
[21] = biological target: Serine/threonine-protein kinase mTOR (Homo sapiens) (UniProt P42345); assay: Inhibition of human mTOR at 10 uM using 4EBP1 as substrate by [gamma-33P]-ATP assay relative to control
[22] = biological target: Mitogen-activated protein kinase 1 (Homo sapiens) (UniProt P28482); assay: Inhibition of human ERK2 at 10 uM using MBP as substrate by [gamma-33P]-ATP assay relative to control
[23] = biological target: Tyrosine-protein kinase BTK (Homo sapiens) (UniProt Q06187); assay: Inhibition of human BTK at 10 uM using KVEKIGEGTYGVVYK as substrate by [gamma-33P]-ATP assay relative to control
[24] = biological target: Dual specificity mitogen-activated protein kinase kinase 1 (Homo sapiens) (UniProt Q02750); assay: Inhibition of human MEK1 at 10 uM using ERK2 as substrate by [gamma-33P]-ATP assay relative to control
Dual specificity mitogen-activated protein kinase kinase 1 (Homo sapiens), sequence (Q02750 whole entry): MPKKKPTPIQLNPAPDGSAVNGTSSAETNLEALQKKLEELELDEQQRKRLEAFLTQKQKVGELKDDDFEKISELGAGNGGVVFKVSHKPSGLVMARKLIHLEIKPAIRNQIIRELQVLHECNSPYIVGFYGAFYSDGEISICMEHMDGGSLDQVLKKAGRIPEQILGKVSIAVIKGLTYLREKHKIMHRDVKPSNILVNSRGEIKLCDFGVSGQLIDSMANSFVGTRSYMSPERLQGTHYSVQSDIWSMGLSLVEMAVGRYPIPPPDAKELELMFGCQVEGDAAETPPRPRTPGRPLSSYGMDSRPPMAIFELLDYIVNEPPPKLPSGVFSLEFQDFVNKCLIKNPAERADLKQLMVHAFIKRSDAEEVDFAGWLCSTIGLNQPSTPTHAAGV

[25] = Half life in Sprague-Dawley rat at 10 mg/kg, po measured for each 30 mins by LC-MS/MS analysis; format: ADME, organism-based; conditions: in vivo
[26] = biological target: Serine/threonine-protein kinase A-Raf (Homo sapiens) (UniProt P10398); assay: Inhibition of human ARAF at 10 uM using MEK1 as substrate by [gamma-33P]-ATP assay relative to control

In the case of COc1ccc(-c2nn(-c3cccc(NC(=O)c4cccc(C(F)(F)F)c4)c3)cc2-c2ccncc2)cc1Cl, the remaining at 0.5 h, 10 µM [1] is reported as 100%, the inhibition in vivo at 50 mg/kg (Rattus norvegicus) is reported as 66.5% and the inhibition [2] is reported as -7.68%. The inhibition [3] was 3.5%, the inhibition [4] was 24.5% and the inhibition [5] was 63.2%. For the same molecule, the AUC(0-inf) [6] was 1460 ng·h/mL, the IC50 [7] was 13.1 µM and the Cmax [8] was 33.2 ng/mL. For the same molecule, the IC50 [9] was > 10 µM, the inhibition [10] was 54.4% and the Ratio IC50 (Homo sapiens) was 7.18. The remaining at 0.5 h, 10 µM [11] was 100%, the remaining at 2 h, 10 µM [12] was 98.4% and the inhibition [13] was 27%. It also gave an inhibition [14] of -4.1%, an inhibition [15] of 94.6% and an inhibition [16] of -6.34%. It also gave a half-life [17] of 6.4 h, an inhibition [18] of 5.26% and an inhibition [19] of 2.43%. For the same molecule, the inhibition [20] was 33.4%, the inhibition [21] was 6.75% and the inhibition [22] was 1.72%. The inhibition [23] was 5.62%, the inhibition [24] was 12.2% and the half-life [25] was 7.3 h. The inhibition [26] was 64.2%.
